Values of other authors, collected in US20090062406A1, “Aqueous concentrates of isethionate, taurate and betaine” (Clariant International Ltd., priority 2007, published 2009).

Conditions: 20° C.

Solubility in water: 10000 µg/mL
Substance: sodium methyl cocoyl taurate
